Measurements taken from PubChem BioAssay AID192 (DTP/NCI, 2004).
Values joined by “and” are separate entries in the source; they are usually repeats but may differ in a detail not shown here. Equal values may be shown once. Toxic doses and inconclusive results are not listed.

System: BDF1 mice, B16 melanoma ip, median survival T/C
Test: NCI In Vivo Anticancer Drug Screen. Data for tumor model B16 Melanoma (intraperitoneal) in B6D2F1 (BDF1) mice
Details: endpoint: median survival time, higher = longer survival
Outline: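 Read-out: survival or tumor size, given as treated/control ratio. Controls received vehicle only; animals bore transplantable tumors.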

[1] = dose: 6.25 mg/kg/injection, schedule: Q01DX009 (ip), vehicle: saline with Tween-80
[2] = dose: 12.5 mg/kg/injection, schedule: Q01DX009 (ip), vehicle: Klucel (hydroxypropylcellulose) (HPC)
[3] = dose: 12.5 mg/kg/injection, schedule: Q01DX009 (ip), vehicle: saline with Tween-80
[4] = dose: 25.0 mg/kg/injection, schedule: Q01DX009 (ip), vehicle: Klucel (hydroxypropylcellulose) (HPC)
[5] = dose: 50.0 mg/kg/injection, schedule: Q01DX009 (ip), vehicle: Klucel (hydroxypropylcellulose) (HPC)
[6] = dose: 100.0 mg/kg/injection, schedule: Q01DX009 (ip), vehicle: Klucel (hydroxypropylcellulose) (HPC)
[7] = dose: 200.0 mg/kg/injection, schedule: Q01DX009 (ip), vehicle: Klucel (hydroxypropylcellulose) (HPC)
[8] = dose: 6.25 mg/kg/injection, schedule: Q01DX009 (ip), vehicle: saline
[9] = dose: 12.5 mg/kg/injection, schedule: Q01DX009 (ip), vehicle: saline
[10] = dose: 25.0 mg/kg/injection, schedule: Q01DX009 (ip), vehicle: saline
[11] = dose: 50.0 mg/kg/injection, schedule: Q01DX009 (ip), vehicle: saline
[12] = dose: 400.0 mg/kg/injection, schedule: Q01DX009 (ip), vehicle: Klucel (hydroxypropylcellulose) (HPC)
[13] = dose: 100.0 mg/kg/injection, schedule: Q01DX009 (ip), vehicle: saline
[14] = dose: 200.0 mg/kg/injection, schedule: Q01DX009 (ip), vehicle: saline

Structure (SMILES): Cc1nc2ccccc2nc1CBr
- T/C (dose: 0.4 mg/kg/injection, schedule: Q01DX009 (ip), vehicle: saline with Tween-80): 104 % of control
- T/C (dose: 0.8 mg/kg/injection, schedule: Q01DX009 (ip), vehicle: saline with Tween-80): 104 % of control
- T/C (dose: 0.8 mg/kg/injection, schedule: Q01DX009 (ip), vehicle: saline): 95 % of control
- T/C (dose: 1.6 mg/kg/injection, schedule: Q01DX009 (ip), vehicle: Klucel (hydroxypropylcellulose) (HPC)): 93 % of control
- T/C (dose: 1.6 mg/kg/injection, schedule: Q01DX009 (ip), vehicle: saline): 93 % of control
- T/C (dose: 3.12 mg/kg/injection, schedule: Q01DX009 (ip), vehicle: Klucel (hydroxypropylcellulose) (HPC)): 100 % of control
- T/C (dose: 3.2 mg/kg/injection, schedule: Q01DX009 (ip), vehicle: saline with Tween-80): 119 % of control
- T/C (dose: 3.2 mg/kg/injection, schedule: Q01DX009 (ip), vehicle: saline): 95 % of control
- T/C (dose: 6.25 mg/kg/injection, schedule: Q01DX009 (ip), vehicle: Klucel (hydroxypropylcellulose) (HPC)): 87 % of control
- T/C [1]: 113 % of control
- T/C (dose: 6.3 mg/kg/injection, schedule: Q01DX009 (ip), vehicle: saline): 102 % of control
- T/C [2]: 96 % of control
- T/C [3]: 108 % of control

Structure (SMILES): COC1=C2C[C@@H](C)C[C@@H](OC)[C@@H](O)[C@H](C)/C=C(\C)[C@@H](OC(N)=O)[C@H](OC)/C=C\C=C(/C)C(=O)NC(=CC1=O)C2=O
- T/C (dose: 0.5 mg/kg/injection, schedule: Q01DX005 (ip), vehicle: other): 110 % of control
- T/C (dose: 0.5 mg/kg/injection, schedule: Q01DX005 (ip), vehicle: saline with Tween-80): 112 % of control
- T/C (dose: 0.5 mg/kg/injection, schedule: Q01DX005 (ip), vehicle: water): 112 % of control and 118 % of control
- T/C (dose: 0.5 mg/kg/injection, schedule: Q01DX009 (ip), vehicle: saline with Tween-80): 110 % of control
- T/C (dose: 1.0 mg/kg/injection, schedule: Q01DX005 (ip), vehicle: saline with Tween-80): 118 % of control
- T/C (dose: 1.0 mg/kg/injection, schedule: Q01DX005 (ip), vehicle: water): 119 % of control
- T/C (dose: 2.0 mg/kg/injection, schedule: Q01DX005 (ip), vehicle: saline with Tween-80): 118 % of control

Structure (SMILES): CCOP(=O)(N1CC1(C)C)N1CC1(C)C (centres undefined)
- T/C (dose: 5.0 mg/kg/injection, schedule: Q01DX009 (ip), vehicle: saline): 109 % of control
- T/C (dose: 10.0 mg/kg/injection, schedule: Q01DX009 (ip), vehicle: saline): 104 % of control
- T/C (dose: 20.0 mg/kg/injection, schedule: Q01DX009 (ip), vehicle: saline): 109 % of control
- T/C (dose: 30.0 mg/kg/injection, schedule: Q01DX009 (ip), vehicle: saline): 118 % of control

Structure (SMILES): CCO/C=C1\SC(=S)N(c2ccccc2OC)C1=O
- T/C [2]: 109 % of control
- T/C [4]: 99 % of control and 117 % of control
- T/C [5]: 107 % of control and 111 % of control
- T/C [6]: 86 % of control and 107 % of control
- T/C [7]: 111 % of control

Structure (SMILES): CN1CCC(CN2c3ccccc3Sc3ccccc32)C1 (centres undefined)
- T/C (dose: 3.12 mg/kg/injection, schedule: Q01DX009 (ip), vehicle: saline): 105 % of control
- T/C [8]: 89 % of control
- T/C [9]: 94 % of control
- T/C [10]: 107 % of control
- T/C [11]: 92 % of control

Structure (SMILES): CCC(Br)C(=O)Nc1c(C)cccc1Cl (centres undefined)
- T/C [4]: 106 % of control
- T/C [5]: 93 % of control
- T/C [6]: 93 % of control

Structure (SMILES): NC(=O)c1ccccc1NC(=O)c1ccccc1Cl
- T/C [6]: 100 % of control
- T/C [7]: 97 % of control
- T/C [12]: 102 % of control

Structure (SMILES): Cc1ccc2c(c1)C(=O)c1ccccc1S2(=O)=O
- T/C [6]: 104 % of control
- T/C [7]: 98 % of control
- T/C [12]: 93 % of control

Structure (SMILES): NC(=O)C(O)C(O)C(O)C(O)C(N)=O (centres undefined)
- T/C [13]: 106 % of control
- T/C [14]: 100 % of control

Structure (SMILES): COc1cccc2c1C(=O)c1c(O)c3c(c(O)c1C2=O)CC(O)(/C(C)=N/NC(=O)CCC(=O)N/N=C(\C)C1(O)Cc2c(O)c4c(c(O)c2C(OC2CC(N)C(O)C(C)O2)C1)C(=O)c1c(OC)cccc1C4=O)CC3OC1CC(N)C(O)C(C)O1 (centres undefined)
- T/C (dose: 4.0 mg/kg/injection, schedule: Q01DX001 (ip), vehicle: water): 163 % of control
- T/C (dose: 8.0 mg/kg/injection, schedule: Q01DX001 (ip), vehicle: water): 165 % of control and 168 % of control and 172 % of control
- T/C (dose: 16.0 mg/kg/injection, schedule: Q01DX001 (ip), vehicle: water): 189 % of control and 292 % of control
- T/C (dose: 32.0 mg/kg/injection, schedule: Q01DX001 (ip), vehicle: water): 123 % of control and 293 % of control and 313 % of control
- T/C (dose: 64.0 mg/kg/injection, schedule: Q01DX001 (ip), vehicle: water): 315 % of control

Structure (SMILES): C[N+](C)(C)CCOc1ccc(Cl)cc1
- T/C (dose: 12.5 mg/kg/injection, schedule: Q04DX003 (ip), vehicle: Klucel (hydroxypropylcellulose) (HPC)): 105 % of control
- T/C (dose: 25.0 mg/kg/injection, schedule: Q04DX003 (ip), vehicle: Klucel (hydroxypropylcellulose) (HPC)): 107 % of control
- T/C (dose: 50.0 mg/kg/injection, schedule: Q04DX003 (ip), vehicle: Klucel (hydroxypropylcellulose) (HPC)): 107 % of control
- T/C (dose: 100.0 mg/kg/injection, schedule: Q04DX003 (ip), vehicle: Klucel (hydroxypropylcellulose) (HPC)): 94 % of control

Structure (SMILES): Cc1cc([N+](=O)[O-])c(N)c([N+](=O)[O-])c1
- T/C [6]: 100 % of control
- T/C [7]: 93 % of control
- T/C [12]: 100 % of control

Structure (SMILES): O=C1CCC2(CCC(=O)c3ccccc32)C(=O)N1 (centres undefined)
- T/C [5]: 119 % of control
- T/C [6]: 114 % of control
- T/C [7]: 116 % of control

Structure (SMILES): Cc1ccc(S(=O)(=O)NC(CSCc2ccccc2)C(=O)O)cc1 (centres undefined)
- T/C (dose: 50.0 mg/kg/injection, schedule: Q01DX009 (ip), vehicle: saline with Tween-80): 92 % of control
- T/C (dose: 100.0 mg/kg/injection, schedule: Q01DX009 (ip), vehicle: saline with Tween-80): 86 % of control

Structure (SMILES): C=C(C)C(=O)Nc1c(C)cccc1C
- T/C [5]: 102 % of control
- T/C [6]: 107 % of control
- T/C [7]: 108 % of control

Structure (SMILES): CCCCC[C@H](CN(C)C)[C@H](O)/C=C/c1ccc(Cl)cc1
- T/C [8]: 95 % of control
- T/C [9]: 100 % of control
- T/C [10]: 104 % of control

Structure (SMILES): O=C(O)c1cc2oc3ccccc3c2cc1O
- T/C [5]: 116 % of control
- T/C [6]: 110 % of control

Structure (SMILES): COc1ccc2c(c1OC(C)=O)-c1cc(OC(C)=O)cc3c1C(C2)N(C(=O)CN(CCCl)CCCl)CC3 (centres undefined)
- T/C (dose: 1.56 mg/kg/injection, schedule: Q04DX003 (ip), vehicle: DMSO): 92 % of control
- T/C (dose: 3.13 mg/kg/injection, schedule: Q04DX003 (ip), vehicle: DMSO): 108 % of control
- T/C (dose: 6.25 mg/kg/injection, schedule: Q04DX003 (ip), vehicle: DMSO): 115 % of control
- T/C (dose: 25.0 mg/kg/injection, schedule: Q04DX003 (ip), vehicle: DMSO): 165 % of control

Structure (SMILES): CC[CH2][Sn]([Cl])([Cl])[CH2]CC
- T/C (dose: 0.5 mg/kg/injection, schedule: Q01DX009 (ip), vehicle: saline): 93 % of control and 100 % of control
- T/C (dose: 1.0 mg/kg/injection, schedule: Q01DX009 (ip), vehicle: saline): 89 % of control and 100 % of control
- T/C (dose: 2.0 mg/kg/injection, schedule: Q01DX009 (ip), vehicle: saline): 93 % of control

Structure (SMILES): CCCCC(CC)CCC(O)CCC(CC)CC (centres undefined)
- T/C [6]: 90 % of control
- T/C [12]: 87 % of control

Structure (SMILES): CSC(=S)N/N=C/c1ccccn1
- T/C (dose: 0.75 mg/kg/injection, schedule: Q01DX009 (ip), vehicle: saline with Tween-80): 86 % of control
- T/C (dose: 1.5 mg/kg/injection, schedule: Q01DX009 (ip), vehicle: saline with Tween-80): 89 % of control
- T/C (dose: 3.0 mg/kg/injection, schedule: Q01DX009 (ip), vehicle: saline with Tween-80): 86 % of control
- T/C (dose: 6.0 mg/kg/injection, schedule: Q01DX009 (ip), vehicle: saline with Tween-80): 94 % of control
- T/C [3]: 110 % of control
- T/C (dose: 25.0 mg/kg/injection, schedule: Q01DX009 (ip), vehicle: saline with Tween-80): 105 % of control

Structure (SMILES): C[N+](C)(C)c1nc(N)nc2c1ncn2C1OC(CO)C(O)C1O (centres undefined)
- T/C [11]: 106 % of control
- T/C [13]: 103 % of control
- T/C [14]: 109 % of control

Structure (SMILES): COc1ccc(C(=O)/C=C/c2ccc3c(c2)OCO3)cc1OC
- T/C [6]: 96 % of control
- T/C [7]: 93 % of control

Structure (SMILES): CCCCCCCCCCCCCCCCCCNC(=O)Oc1ccc(Cl)c(C)c1
- T/C (dose: 100.0 mg/kg/injection, schedule: Q04DX003 (ip), vehicle: gum acacia): 88 % of control
- T/C (dose: 200.0 mg/kg/injection, schedule: Q04DX003 (ip), vehicle: gum acacia): 90 % of control

Structure (SMILES): CC(O)COc1ccc(OCc2ccccc2)cc1 (centres undefined)
- T/C [6]: 106 % of control
- T/C [7]: 109 % of control
- T/C [12]: 100 % of control

Structure (SMILES): C1=Cc2ccccc2/C1=C/c1cccc(/C=C2\C=Cc3ccccc32)c1
- T/C [1]: 100 % of control
- T/C [3]: 86 % of control

Structure (SMILES): C1CC[N-]CC1.CC(=N\O)/C(C)=N/O.CC(=N\O)/C(C)=N/O.[CH-]1CCCCC1.[Co+2]
- T/C [5]: 97 % of control
- T/C [6]: 94 % of control
